IC50 data for 21 molecules are collected here from PubChem BioAssay AID1159559 (GlaxoSmithKline (GSK), 2015).

The source made the active and inactive calls.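 How the source made its calls: active means compounds whose IC50 against parasite growth in infected mouse cells is below 50000 nM; inactive means the rest.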

In the assay the test system is T. cruzi Tulahuen in NIH-3T3, beta-gal fluorescence, 4 d. The experiment in a line: anti-Chagas amastigote proliferation inhibitors – cell-based (AID 1159559).

As usually defined, the IC50 is the concentration that gives 50% inhibition. In the case of `CCCN1CCN(Cc2ccc(S(=O)(=O)Nc3cccc(C)c3)cc2)CC1`, the IC50 was 0.79 µM.

As to `O=C1NCc2cccc(Nc3nc(NC4CCC(O)CC4)ncc3Br)c21` (stereo unspecified), the IC50 was 0.63 µM. In the case of `Nc1cc(-c2ccc3ncnc(N4CCOCC4)c3c2)cnc1N` it was 1.6 µM; in that of `CC(C)Oc1cccc(N2CCC(C(=O)N3CCCN(C(C)C)CC3)CC2)c1`, 1.3 µM.

As to `COc1ccc(Nc2nccc(N(C)c3n[nH]c4c(F)cccc34)n2)cc1S(C)(=O)=O`, the half-inhibitory concentration (IC50) was 2 µM. As to `CC(CCc1ccccc1)NC(=O)CN(Cc1ccccn1)Cc1ccccn1` (stereo unspecified), the IC50 was 2.5 µM. As to `O=C(Nc1ccc(C(F)(F)F)cc1)NC1(C(=O)NCc2ccco2)CCCCC1`, the IC50 is 7.9 µM.

Take `COc1ccc(NS(=O)(=O)c2cc(-c3cc(C)[nH]n3)ccc2C)cc1OC`: the IC50 is 1.3 µM. Consider `Cc1ncsc1CNc1cnc(-c2ccc3c(c2)OCCO3)c(-c2cnn(C)c2)c1`, for which the IC50 is 13 µM. In the case of `O=[N+]([O-])c1ccc(-c2nnn(-c3ccc(Cl)cc3)n2)o1` it was 0.25 µM; in that of `CC1CN(S(=O)(=O)c2ccc(NC(=O)c3cc(C4CC4)nc4c3cnn4C(C)C)cc2)CC(C)O1` (stereo unspecified), 0.63 µM; in that of `CC(Cn1ccnc1)NC(=O)COc1ccc(Cl)c(Cl)c1` (stereo unspecified), 0.2 µM. In the case of `Cc1cc(Nc2cc(C3CC3)[nH]n2)nc(N2CCC[C@H]2C(N)=O)n1` it was 0.13 µM. Then `CC(C)S(=O)(=O)c1ccc(-c2cnc(N)c3cc(-c4ccnc(N)n4)ccc23)cc1`, with 0.79 µM; and `Cn1cc(CN2CCN(c3ccc4c(c3)CCN(C(=O)[C@H]3C[C@@H]3c3ccccc3)CC4)CC2)cn1`, with 1.6 µM; and `O=C(Cn1cnc2c(-c3ccccc3)csc2c1=O)N1CCCCC1`, with 3.2 µM. Take `Cc1nn2c(NCCCO)c3c(nc2c1-c1cccs1)CCC3`: the IC50 was 16 µM. Regarding `C=CCOCC1Cn2nc([N+](=O)[O-])nc2O1` (stereo unspecified), the IC50 was 0.5 µM.

As for `CCCn1c(NC(=O)Cc2ccc(Cl)cc2)nc2ccccc21`, the IC50 was 0.63 µM.

Take `COc1cc(OC)cc(C(=O)N[C@@H](CC(C)C)C(=O)NC2(C#N)CC2)c1`: the IC50 was > 50 µM (inactive).

Regarding `Cc1ccc(-c2csc(NC(=O)C=Cc3ccc(S(=O)(=O)N4CCOCC4)cc3)n2)o1`, the IC50 was 7.9 µM.
